In ChEMBL document CHEMBL5338805, “Discovery of the First Subnanomolar PPARα/δ Dual Agonist for the Treatment of Cholestatic Liver Diseases” (J Med Chem, 2023):
Calls of active or inactive are those of the source. The rule behind the calls is not given here.

Key:
[1] = Anti-cholestatic activity in ANIT-induced C57BL/6Nifdc mouse model assessed as decrease in liver alkaline phosphatase at 0.03 to 0.1 mg/kg, po upto 42 hrs measured after 48 hrs; format: ADME, organism-based; conditions: in vivo, 90 h, dose 0.03-0.1 mg/kg
[2] = Anti-cholestatic activity in ANIT-induced C57BL/6Nifdc mouse model assessed as downregulation of proinflammatory Ccl4 gene at 0.03 to 0.1 mg/kg, po upto 42 hrs measured after 48 hrs; format: ADME, organism-based; conditions: in vivo, 90 h, dose 0.03-0.1 mg/kg
[3] = In vivo upregulation of PPAR alpha in C57BL/6JNifdc mouse liver administered at 0.03 mg/kg, po for 3 days measured after 6 hrs of last administration by real-time PCR analysis; format: ADME, organism-based; conditions: 78 h, time 3.25 day
[4] = Acute toxicity in mouse assessed as mortality administered orally for 14 days; conditions: in vivo, po, 336 h, time 14 day
[5] = Anti-cholestatic activity in ANIT-induced C57BL/6Nifdc mouse model assessed as decrease in total p65 level at 0.03 to 0.1 mg/kg, po upto 42 hrs measured after 48 hrs by Western blot analysis; format: ADME, organism-based; conditions: in vivo, 90 h, dose 0.03-0.1 mg/kg
[6] = Anti-cholestatic activity in ANIT-induced C57BL/6Nifdc mouse model assessed as decrease in liver T-MCA at 0.03 to 0.1 mg/kg, po upto 42 hrs measured after 48 hrs; format: ADME, organism-based; conditions: in vivo, 90 h, dose 0.03-0.1 mg/kg
[7] = Mutagenicity in Salmonella typhimurium TA100 measured at 0.21 to 16.67 mg/ml for 72 hrs by mini-Ames test; format: toxicity; conditions: salmonella enterica subsp. enterica serovar typhimurium, dose 0.21-16.67 mg/ml
[8] = Anti-cholestatic activity in ANIT-induced C57BL/6Nifdc mouse model assessed as decrease in liver beta-MCA at 0.03 to 0.1 mg/kg, po upto 42 hrs measured after 48 hrs; format: ADME, organism-based; conditions: in vivo, 90 h, dose 0.03-0.1 mg/kg
[9] = Anti-cholestatic activity in ANIT-induced C57BL/6Nifdc mouse model assessed as decrease in serum alanine aminotransferase at 0.03 to 0.1 mg/kg, po upto 42 hrs measured after 48 hrs; format: ADME, organism-based; conditions: in vivo, 90 h, dose 0.03-0.1 mg/kg
[10] = Anti-cholestatic activity in ANIT-induced C57BL/6Nifdc mouse model assessed as decrease in serum aspartate aminotransferase at 0.03 to 0.1 mg/kg, po upto 42 hrs measured after 48 hrs; format: ADME, organism-based; conditions: in vivo, 90 h, dose 0.03-0.1 mg/kg
[11] = Clearance in fasted Sprague-Dawley rat at 10 mg/kg, po measured at 0.083 to 24 hrs by LC-MS/MS analysis; format: ADME, organism-based; conditions: in vivo, time 0.083-24 hrs
[12] = Anti-fibrosis activity in Ccl4-induced C57BL/6Nifdc mouse model assessed as decrease in serum triglyceride level administered at 0.03 to 0.1 mg/kg,po for 3 weeks; format: ADME, organism-based; conditions: in vivo, 504 h, dose 0.03-0.1 mg/kg
[13] = Anti-cholestatic activity in ANIT-induced C57BL/6Nifdc mouse model assessed as decrease in liver DHLCA at 0.03 to 0.1 mg/kg, po upto 42 hrs measured after 48 hrs; format: ADME, organism-based; conditions: in vivo, 90 h, dose 0.03-0.1 mg/kg
[14] = target: Peroxisome proliferator-activated receptor delta (Homo sapiens) (UniProt Q03181); conditions: filed as agonist, dose 0.625-10 µM
Description: Binding affinity to PPARdelta LBD (unknown origin) assessed as thermal stability by measuring change in melting temperature by thermal shift assay

[15] = target: Nuclear receptor subfamily 1 group I member 2 (Homo sapiens, UniProt O75469); experiment: Agonist activity at PXR (unknown origin) transfected in african green monkey COS7 cells assessed transactivation incubated at 1 uM for 16 hrs by luciferase assay; format: cell-based; conditions: cos7, 16 h
[16] = target: Peroxisome proliferator-activated receptor alpha (Homo sapiens) (UniProt Q07869); experiment: Binding affinity to PPARalpha LBD (unknown origin) assessed as thermal stability by measuring change in melting temperature by thermal shift assay; conditions: filed as agonist, dose 0.625-10 µM
[17] = Mutagenicity in Salmonella typhimurium TA98 measured at 0.21 to 16.67 mg/ml for 72 hrs by mini-Ames test; format: toxicity; conditions: salmonella enterica subsp. enterica serovar typhimurium, dose 0.21-16.67 mg/ml
[18] = target: Oxysterols receptor LXR-beta (Homo sapiens) (UniProt P55055); experiment: Agonist activity at LXRbeta (unknown origin) transfected in african green monkey COS7 cells assessed transactivation incubated at 1 uM for 16 hrs by luciferase assay; format: cell-based
[19] = Stability in human liver microsome assessed as intrinsic clearance at 1 uM for 0 to 45 mins by LC/MS-8050 analysis; format: ADME; conditions: liver microsomes, time 0-45 min, read-out: CLH
[20] = Acute toxicity in mouse assessed as lethal dose administered orally for 14 days; conditions: in vivo, po, 336 h, time 14 day

Oxysterols receptor LXR-beta (Homo sapiens), sequence (P55055 whole entry): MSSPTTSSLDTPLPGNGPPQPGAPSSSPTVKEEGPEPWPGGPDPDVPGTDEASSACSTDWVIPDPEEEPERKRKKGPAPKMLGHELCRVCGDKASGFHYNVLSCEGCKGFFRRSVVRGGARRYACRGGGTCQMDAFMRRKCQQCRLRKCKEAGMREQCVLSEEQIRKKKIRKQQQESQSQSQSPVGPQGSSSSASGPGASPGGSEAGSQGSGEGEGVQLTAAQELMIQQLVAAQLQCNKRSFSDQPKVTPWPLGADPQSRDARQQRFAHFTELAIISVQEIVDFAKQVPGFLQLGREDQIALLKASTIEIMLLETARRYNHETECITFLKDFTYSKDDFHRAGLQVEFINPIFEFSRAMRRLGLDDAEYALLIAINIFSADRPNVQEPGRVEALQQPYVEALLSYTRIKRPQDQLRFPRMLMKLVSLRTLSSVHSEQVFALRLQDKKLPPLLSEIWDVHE
Peroxisome proliferator-activated receptor delta (Homo sapiens), sequence (Q03181 whole entry): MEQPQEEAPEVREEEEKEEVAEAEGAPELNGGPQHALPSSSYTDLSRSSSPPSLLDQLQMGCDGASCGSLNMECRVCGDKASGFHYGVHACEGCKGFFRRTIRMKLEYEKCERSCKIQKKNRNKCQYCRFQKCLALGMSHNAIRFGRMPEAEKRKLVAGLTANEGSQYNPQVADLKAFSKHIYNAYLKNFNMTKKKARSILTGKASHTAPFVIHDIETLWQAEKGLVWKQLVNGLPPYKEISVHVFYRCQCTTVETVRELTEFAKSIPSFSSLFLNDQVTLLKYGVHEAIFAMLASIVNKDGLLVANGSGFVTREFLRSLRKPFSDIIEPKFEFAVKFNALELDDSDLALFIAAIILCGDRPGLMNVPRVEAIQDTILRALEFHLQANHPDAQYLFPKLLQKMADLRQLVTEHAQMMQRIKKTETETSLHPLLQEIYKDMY
Nuclear receptor subfamily 1 group I member 2, sequence (O75469 whole entry, the tested form may be a part): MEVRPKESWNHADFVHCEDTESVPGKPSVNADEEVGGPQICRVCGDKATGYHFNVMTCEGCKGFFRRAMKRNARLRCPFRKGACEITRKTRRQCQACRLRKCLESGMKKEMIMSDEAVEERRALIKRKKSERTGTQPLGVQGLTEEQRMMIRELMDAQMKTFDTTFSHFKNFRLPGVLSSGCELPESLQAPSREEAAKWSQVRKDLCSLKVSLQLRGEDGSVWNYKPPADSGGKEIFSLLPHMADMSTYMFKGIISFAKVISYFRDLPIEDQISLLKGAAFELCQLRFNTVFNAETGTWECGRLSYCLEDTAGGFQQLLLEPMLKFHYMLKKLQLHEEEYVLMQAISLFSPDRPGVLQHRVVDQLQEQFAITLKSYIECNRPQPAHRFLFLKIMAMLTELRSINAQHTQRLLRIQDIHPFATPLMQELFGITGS
Peroxisome proliferator-activated receptor alpha (Homo sapiens), sequence (Q07869 whole entry, the tested form may be a part): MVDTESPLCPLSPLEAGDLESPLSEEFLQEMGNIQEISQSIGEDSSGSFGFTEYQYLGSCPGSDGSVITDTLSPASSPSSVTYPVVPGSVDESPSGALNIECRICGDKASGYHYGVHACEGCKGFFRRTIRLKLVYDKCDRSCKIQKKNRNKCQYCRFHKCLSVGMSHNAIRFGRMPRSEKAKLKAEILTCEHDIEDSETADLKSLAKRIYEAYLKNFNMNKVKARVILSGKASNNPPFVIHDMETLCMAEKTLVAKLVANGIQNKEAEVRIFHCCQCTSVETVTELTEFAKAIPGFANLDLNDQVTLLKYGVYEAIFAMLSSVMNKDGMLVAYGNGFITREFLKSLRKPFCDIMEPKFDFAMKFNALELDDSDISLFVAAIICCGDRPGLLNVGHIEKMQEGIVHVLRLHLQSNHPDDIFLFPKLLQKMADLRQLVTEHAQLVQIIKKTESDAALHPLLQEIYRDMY

Cc1cc(CN2C(=O)CN(c3ccc(C(F)(F)F)cc3)C2=O)cc(C)c1OC(C)(C)C(=O)O
Activity [1]: Active
Activity [2]: Active
Activity [3]: Active
Activity [4]: Non-Toxic
Activity [5]: Active
Activity [6]: Active
Activity [7]: Non-Toxic
Activity [8]: Active
Activity [9]: Active
Activity [10]: Active
CL [11]: 7.6 mL/min/kg
Activity [12]: Active
Activity [13]: Active
deltaTm [14]: Dose-Dependent Effect
Activity [15]: Not Active
deltaTm [16]: Dose-Dependent Effect
Activity [17]: Non-Toxic
Activity [18]: inactive
CLint scaled at 1 µM [19]: 6.24 mL/min/kg
LD [20]: > 2000 mg/kg
